In ChEMBL document CHEMBL1141981, “Studies on synthesis and evaluation of quantitative structure-activity relationship of 5-[(3'-chloro-4',4'-disubstituted-2-oxoazetidinyl)(N-nitro)amino]-6-hydroxy-3-alkyl/aryl[1,3]azaphospholo[1,5-a]pyridin-1-yl-phosphorus dichlorides” (2005):
“And” between values parts separate entries of the source, which are not always exact repeats. Equal entries are not always repeated.

Columns and labels:
Format in all cases: functional
Staphylococcus aureus = assay: Minimum inhibitory concentration against Staphylococcus aureus
Bacillus subtilis = assay: Minimum inhibitory concentration against Bacillus subtilis
[1] = Minimum inhibitory concentration against Candida albicans

-Log MIC (Staphylococcus aureus)	-Log MIC (Bacillus subtilis)	SMILES	-Log MIC [1]
3.097 ug ml-1	4.606 ug ml-1	CC1(C)S[C@@H]2[C@H](NC(=O)[C@H](N)c3ccccc3)C(=O)N2[C@H]1C(=O)O [AMPICILLIN]	–
–	–	Clc1ccccc1C(c1ccccc1)(c1ccccc1)n1ccnc1	3.14 µg ml-1 and 3.24 µg ml-1
